From ChEMBL document CHEMBL1811766, “Structure-activity relationship studies of novel pyrazole and imidazole carboxamides as cannabinoid-1 (CB1) antagonists” (Bioorg Med Chem Lett, 2011)

Key:
[1] = test system: Mus musculus; assay: Inhibition of WIN-55212 induced hypothermia in Swiss albino mouse assessed as change temperature at 10 mg/kg, po administered 30 mins after WIN55212 challenge measured after 30 mins; type: functional; settings: 0.5 h
[2] = target: Cannabinoid receptor 2 (Homo sapiens) (UniProt P34972); assay: Displacement of [3H]CP55940 from human cannabinoid CB2 receptor expressed in CHO cells at 1 uM at pH 7.4 after 1 hr by liquid scintillation counting; type: cell-based
[3] = target: Cannabinoid receptor 1 (Rattus norvegicus, UniProt P20272); assay: Displacement of [3H]SR141716A from rat brain CB1 receptor at pH 7.4 after 1 hr by liquid scintillation counting
[4] = target: Cannabinoid receptor 1 (Rattus norvegicus) (UniProt P20272); assay: Displacement of [3H]SR141716A from rat brain CB1 receptor at 1 uM at pH 7.4 after 1 hr by liquid scintillation counting
[5] = target: Cannabinoid receptor 1 (Rattus norvegicus) (UniProt P20272); assay: Displacement of [3H]SR141716A from rat brain CB1 receptor at 100 nM at pH 7.4 after 1 hr by liquid scintillation counting
[6] = target: Voltage-gated inwardly rectifying potassium channel KCNH2 (Homo sapiens, UniProt Q12809); assay: Inhibition of human ERG expressed in HEK293 cells assessed as inhibition of potassium channel current after 5 mins by patch clamp assay; type: cell-based
[7] = target: T1, hERG (KCNH2) (Homo sapiens, UniProt Q12809); assay: Inhibition of human ERG expressed in HEK293 cells assessed as inhibition of potassium channel current at 30 uM after 5 mins by patch clamp assay; type: cell-based; settings: HEK293 cells expressing human ERG
[8] = Ratio of drug level in brain to plasma in Swiss albino mouse at 30 mg/kg, po measured 1 hr post dose; type: ADME, organism-based; set-up: dose 30 mg/kg, route oral; settings: read-out: BPR
[9] = test system: Mus musculus; assay: Antiobesity activity in Swiss albino mouse assessed as reduction in acute food intake at 10 mg/kg, po administered as single dose relative to control; type: functional; set-up: scale not given: the % may be the effect or the level left
[10] = test system: Mus musculus; assay: Inhibition of WIN-55212 induced hypothermia in Swiss albino mouse assessed as change temperature at 3 mg/kg, po administered 30 mins after WIN55212 challenge measured after 30 mins; type: functional; settings: 0.5 h
[11] = target: T1, hERG (KCNH2); assay: Inhibition of human ERG expressed in HEK293 cells assessed as inhibition of potassium channel current at 10 uM after 5 mins by patch clamp assay; type: cell-based; settings: HEK293 cells expressing human ERG
[12] = test system: Mus musculus; assay: Antiobesity activity in C57BL/6 mouse assessed as reduction in body weight at 10 mg/kg, po QD for 15 days; type: functional; set-up: scale not given: the % may be the effect or the level left
[13] = AUC (0 to 24 hrs) in Swiss albino mouse at 30 mg/kg, po; type: ADME, organism-based; set-up: time < 24 hr, dose 30 mg/kg, route oral; settings: plasma
[14] = test system: Mus musculus; assay: Antiobesity activity in Swiss albino mouse assessed as reduction in acute food intake administered orally as single dose; type: functional, organism-based
[15] = Cmax in Swiss albino mouse at 30 mg/kg, po; type: ADME, organism-based; set-up: dose 30 mg/kg, route oral; settings: in vivo
[16] = Half life in Swiss albino mouse at 30 mg/kg, po; type: ADME, organism-based; set-up: dose 30 mg/kg, route oral; settings: in vivo
[17] = test system: Mus musculus; assay: Antiobesity activity in Swiss albino mouse assessed as reduction in acute food intake at 30 mg/kg, po administered as single dose relative to control; type: functional; set-up: scale not given: the % may be the effect or the level left

Chain of Cannabinoid receptor 2 (Homo sapiens) (P34972 whole entry): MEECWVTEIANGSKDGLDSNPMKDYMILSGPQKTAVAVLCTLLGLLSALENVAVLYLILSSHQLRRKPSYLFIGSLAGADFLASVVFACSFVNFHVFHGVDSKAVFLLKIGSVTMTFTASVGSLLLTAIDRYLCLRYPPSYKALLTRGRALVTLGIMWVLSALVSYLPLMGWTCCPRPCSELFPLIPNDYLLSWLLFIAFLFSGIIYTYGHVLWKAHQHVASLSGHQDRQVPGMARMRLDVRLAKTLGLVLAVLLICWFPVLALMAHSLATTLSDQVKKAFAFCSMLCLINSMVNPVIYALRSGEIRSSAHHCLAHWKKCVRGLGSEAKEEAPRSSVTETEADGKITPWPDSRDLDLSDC
Chain of Voltage-gated inwardly rectifying potassium channel KCNH2 (Q12809 whole entry): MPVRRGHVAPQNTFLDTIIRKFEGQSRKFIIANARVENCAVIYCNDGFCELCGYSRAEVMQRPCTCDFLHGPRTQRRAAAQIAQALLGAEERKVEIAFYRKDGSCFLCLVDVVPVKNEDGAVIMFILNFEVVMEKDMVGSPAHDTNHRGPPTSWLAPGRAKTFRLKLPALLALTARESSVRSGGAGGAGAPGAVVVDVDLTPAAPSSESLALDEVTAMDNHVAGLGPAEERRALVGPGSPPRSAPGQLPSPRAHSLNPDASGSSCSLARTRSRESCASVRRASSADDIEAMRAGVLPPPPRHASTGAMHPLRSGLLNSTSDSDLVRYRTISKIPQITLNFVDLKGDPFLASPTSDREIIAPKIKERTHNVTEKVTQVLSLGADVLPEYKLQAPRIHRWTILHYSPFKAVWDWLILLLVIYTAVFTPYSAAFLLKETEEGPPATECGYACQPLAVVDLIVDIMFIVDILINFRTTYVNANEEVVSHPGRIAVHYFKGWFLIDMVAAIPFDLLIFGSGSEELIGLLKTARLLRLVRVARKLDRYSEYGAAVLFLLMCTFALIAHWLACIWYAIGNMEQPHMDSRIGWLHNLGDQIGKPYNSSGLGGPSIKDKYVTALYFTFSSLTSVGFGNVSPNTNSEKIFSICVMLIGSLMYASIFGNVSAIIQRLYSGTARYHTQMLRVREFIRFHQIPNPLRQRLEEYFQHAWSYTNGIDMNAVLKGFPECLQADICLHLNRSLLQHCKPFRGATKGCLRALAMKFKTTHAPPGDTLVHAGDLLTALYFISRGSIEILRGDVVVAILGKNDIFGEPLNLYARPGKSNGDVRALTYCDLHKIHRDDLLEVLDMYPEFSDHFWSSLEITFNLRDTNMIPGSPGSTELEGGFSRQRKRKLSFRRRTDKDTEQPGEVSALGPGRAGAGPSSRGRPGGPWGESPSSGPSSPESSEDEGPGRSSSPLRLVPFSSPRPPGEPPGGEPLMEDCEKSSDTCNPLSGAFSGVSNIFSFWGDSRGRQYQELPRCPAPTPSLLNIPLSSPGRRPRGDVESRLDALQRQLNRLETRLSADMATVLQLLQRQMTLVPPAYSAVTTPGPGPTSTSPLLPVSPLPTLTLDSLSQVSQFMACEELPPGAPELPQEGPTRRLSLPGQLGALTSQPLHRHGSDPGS
T1 sequence (Q12809 whole entry): as above
Chain of Cannabinoid receptor 1 (P20272 whole entry): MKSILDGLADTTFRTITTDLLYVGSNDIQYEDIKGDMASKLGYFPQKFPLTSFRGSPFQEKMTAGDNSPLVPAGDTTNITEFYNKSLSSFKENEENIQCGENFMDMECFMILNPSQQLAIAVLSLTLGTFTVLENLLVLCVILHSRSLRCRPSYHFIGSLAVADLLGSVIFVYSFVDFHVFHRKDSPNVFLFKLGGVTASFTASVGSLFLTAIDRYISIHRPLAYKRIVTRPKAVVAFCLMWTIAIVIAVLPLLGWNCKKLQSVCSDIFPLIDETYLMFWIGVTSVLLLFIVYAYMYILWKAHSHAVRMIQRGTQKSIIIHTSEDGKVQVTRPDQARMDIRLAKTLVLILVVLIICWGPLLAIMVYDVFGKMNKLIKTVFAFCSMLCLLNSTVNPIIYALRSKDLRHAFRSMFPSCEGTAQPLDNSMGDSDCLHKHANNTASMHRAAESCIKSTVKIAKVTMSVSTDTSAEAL
Chain of Cannabinoid receptor 1 (Rattus norvegicus) (P20272 whole entry): as above

Cc1c(C(=O)NC(C)(C)c2nnc(C(F)(F)F)o2)nn(-c2ccc(Cl)cc2Cl)c1-c1ccc(Cl)cc1
inhibition in vivo at 10 mg/kg [1]: 97% | inhibition [2]: 64% | IC50 [3]: 6 nM

O=C(NC1(c2noc(C(F)(F)F)n2)CC1)c1nn(-c2ccc(Cl)cc2Cl)c(-c2ccc(Cl)cc2)c1C(=O)O
inhibition [4]: 66% | inhibition [5]: 44%

CC(C)(NC(=O)c1cn(-c2ccc(Cl)cc2Cl)c(-c2ccc(Cl)cc2)n1)c1noc(C(F)(F)F)n1
IC50 [3]: 30 nM

CCc1c(C(=O)NC(C)(C)c2nnnn2C)nn(-c2ccc(Cl)cc2Cl)c1-c1ccc(OC)cc1
IC50 [3]: 5 nM

COCc1c(C(=O)NC(C)(C)c2noc(C(F)(F)F)n2)nn(-c2ccc(Cl)cc2Cl)c1-c1ccc(Cl)cc1
IC50 [3]: 4 nM

Cc1c(C(=O)NC(C)(C)c2nnnn2C)nn(-c2ccc(Cl)cc2Cl)c1-c1ccc(Cl)cc1
IC50 [3]: 145 nM

Cc1csc(C(C)(C)NC(=O)c2nn(-c3ccc(Cl)cc3Cl)c(-c3ccc(Cl)cc3)c2C)n1
IC50 [3]: 15 nM

Cc1c(C(=O)NC(C)(C)c2cn3ccsc3n2)nn(-c2ccc(Cl)cc2Cl)c1-c1ccc(Cl)cc1
IC50 [3]: 11 nM

CC(C)(NC(=O)c1nn(-c2ccc(Cl)cc2Cl)c(-c2ccc(Cl)cc2)c1CO)c1noc(C(F)(F)F)n1
IC50 [6]: > 30000 nM | inhibition at 5 min, 30 µM [7]: 38.9% | inhibition in vivo at 10 mg/kg [1]: 97% | inhibition [2]: 34% | IC50 [3]: 0.4 nM

Cc1c(C(=O)NC(C)(C)c2nnn(C)n2)nn(-c2ccc(Cl)cc2Cl)c1-c1ccc(Cl)cc1
IC50 [3]: 88 nM

CCC(C)(NC(=O)c1nn(-c2ccc(Cl)cc2Cl)c(-c2ccc(Cl)cc2)c1C)c1noc(C(F)(F)F)n1 (stereo not given)
IC50 [3]: 6 nM

CCc1c(C(=O)NC(C)(C)c2nnnn2C)nn(-c2ccc(Cl)cc2Cl)c1-c1ccc(OCC(=O)O)cc1
inhibition [4]: 25% | IC50 [3]: > 1000 nM

C[C@H](NC(=O)C(C)(C)Oc1ccc(C(F)(F)F)cn1)[C@@H](Cc1ccc(Cl)cc1)c1cccc(C#N)c1 [TARANABANT]
IC50 [3]: 0.3 nM

CCOC(=O)c1sc(C(C)(C)NC(=O)c2nn(-c3ccc(Cl)cc3Cl)c(-c3ccc(Cl)cc3)c2C)nc1C
IC50 [3]: 22 nM

CCc1c(C(=O)NC(C)(C)c2nnnn2C)nn(-c2ccc(Cl)cc2Cl)c1-c1ccc(C#N)cc1
IC50 [3]: 22 nM

CC(C)(NC(=O)c1cn(-c2ccc(Cl)cc2Cl)c(-c2ccc(Cl)cc2)n1)c1nnc(C(F)(F)F)o1
IC50 [3]: 13 nM

CCc1c(C(=O)NC(C)(C)c2nnnn2C)nn(-c2ccc(Cl)cc2Cl)c1-c1ccc(O)cc1
inhibition [5]: 23%

COc1ccc2c(c1)CCCc1c(C(=O)NC(C)(C)c3nnnn3C)nn(-c3ccc(Cl)cc3Cl)c1-2
inhibition [5]: 38%

CCc1c(C(=O)NC(C)(C)c2nnnn2C)nc(-c2ccc(Cl)cc2Cl)n1-c1ccc(Cl)cc1
IC50 [3]: 36 nM

CCOC(=O)c1ccc(-c2c(CC)c(C(=O)NC(C)(C)c3nnnn3C)nn2-c2ccc(Cl)cc2Cl)cc1
IC50 [3]: 17 nM

Cc1c(C(=O)NC(C)(C)c2nc(C(F)(F)F)cs2)nn(-c2ccc(Cl)cc2Cl)c1-c1ccc(Cl)cc1
IC50 [3]: 2 nM

CCCS(=O)(=O)Oc1ccc(-c2c(C)c(C(=O)NC(C)(C)c3nnnn3C)nn2-c2ccc(Cl)cc2Cl)cc1
IC50 [3]: 1.1 nM

Cc1c(C(=O)NC(C)(C)c2noc(C(F)(F)F)n2)nn(-c2ccc(Cl)cc2Cl)c1-c1ccc(Cl)cc1
IC50 [3]: 3 nM

Cc1nc(C(C)(C)NC(=O)c2nn(-c3ccc(Cl)cc3Cl)c(-c3ccc(Cl)cc3)c2C)no1
IC50 [3]: 33 nM

O=C(NC1(c2noc(C(F)(F)F)n2)CC1)c1nn(-c2ccc(Cl)cc2Cl)c(-c2ccc(Cl)cc2)c1CO
inhibition in vivo at 10 mg/kg [1]: 99% | inhibition [2]: 18% | IC50 [3]: 0.1 nM

Cc1c(C(=O)NN2CCCCC2)nn(-c2ccc(Cl)cc2Cl)c1-c1ccc(Cl)cc1 [RIMONABANT]
IC50 [6]: 2790 nM | Kp at 1 h [8]: 3.64 | Activity [9]: 71% | inhibition in vivo at 3 mg/kg [10]: 99% | inhibition [2]: 34%

CCOC(=O)c1c(C(=O)NC2(c3noc(C(F)(F)F)n3)CC2)nn(-c2ccc(Cl)cc2Cl)c1-c1ccc(Cl)cc1
IC50 [3]: 1 nM

CCc1c(C(=O)NC(C)(C)c2nnnn2C)nn(-c2ccc(Cl)cc2Cl)c1-c1ccc(Br)cc1
IC50 [6]: 22700 nM | inhibition in vivo at 10 mg/kg [1]: 83% | inhibition [2]: 27% | IC50 [3]: 0.1 nM

Cc1c(C(=O)NC(C)(C)c2cn3cc(C(F)(F)F)ccc3n2)nn(-c2ccc(Cl)cc2Cl)c1-c1ccc(Cl)cc1
IC50 [3]: 63 nM

Cc1c(C(=O)NC2(c3noc(C(F)(F)F)n3)CCC2)nn(-c2ccc(Cl)cc2Cl)c1-c1ccc(Cl)cc1
IC50 [3]: 0.8 nM

Cc1c(C(=O)NC(C)(C)c2nnnn2C)nc(-c2ccc(Cl)cc2Cl)n1-c1ccc(Cl)cc1
inhibition [5]: 42%

Cc1c(C(=O)NC(C)(C)c2cn3cc(Cl)ccc3n2)nn(-c2ccc(Cl)cc2Cl)c1-c1ccc(Cl)cc1
IC50 [3]: 88 nM

CCOC(=O)Cc1csc(C(C)(C)NC(=O)c2nn(-c3ccc(Cl)cc3Cl)c(-c3ccc(Cl)cc3)c2C)n1
IC50 [3]: 10 nM

CCc1c(C(=O)NC(C)(C)c2nnnn2C)nn(-c2ccc(Cl)cc2Cl)c1-c1ccc(C(=O)O)cc1
inhibition [4]: 50%

CCOC(=O)COc1ccc(-c2c(CC)c(C(=O)NC(C)(C)c3nnnn3C)nn2-c2ccc(Cl)cc2Cl)cc1
inhibition [5]: 32%

CCc1c(C(=O)NC(C)(C)c2nnnn2C)nn(-c2ccc(Cl)cc2Cl)c1-c1ccc(Cl)cc1
inhibition in vivo at 10 mg/kg [1]: 96% | inhibition at 5 min, 10 µM [11]: 59.7% | inhibition [2]: 16% | IC50 [3]: 0.5 nM

Cc1ncc(C(C)(C)NC(=O)c2nn(-c3ccc(Cl)cc3Cl)c(-c3ccc(Cl)cc3)c2C)s1
IC50 [3]: 12 nM

CCc1c(C(=O)NC(C)(C)c2nnn(C)n2)nn(-c2ccc(Cl)cc2Cl)c1-c1ccc(Cl)cc1
IC50 [3]: 39 nM

Cc1c(C(=O)NC(C)(C)c2nc(CC(=O)O)cs2)nn(-c2ccc(Cl)cc2Cl)c1-c1ccc(Cl)cc1
inhibition [4]: 50%

Cn1nnnc1C(C)(C)NC(=O)c1nn(-c2ccc(Cl)cc2Cl)c2c1CCCc1cc(Cl)ccc1-2
IC50 [3]: 31 nM

CCc1c(C(=O)NC(C)(C)c2noc(C(F)(F)F)n2)nc(-c2ccc(Cl)cc2Cl)n1-c1ccc(Cl)cc1
IC50 [3]: 3 nM

Cc1c(C(=O)NC(C)(C)c2cn3cccnc3n2)nn(-c2ccc(Cl)cc2Cl)c1-c1ccc(Cl)cc1
IC50 [3]: 121 nM

Cc1c(C(=O)NC2(c3noc(C(F)(F)F)n3)CC2)nn(-c2ccc(Cl)cc2Cl)c1-c1ccc(Cl)cc1
IC50 [6]: > 30000 nM | Activity [12]: 11% | AUC(0-t) at 24 h [13]: 4300 ng·h/mL | Activity [14]: Dose-dependent effect | Kp at 1 h [8]: 0.21 | inhibition at 5 min, 30 µM [7]: 7.2% | inhibition in vivo at 10 mg/kg [1]: 97% | Activity [9]: 31% | inhibition [2]: 49% | Cmax [15]: 350 ng/mL | half-life [16]: 4.22 h | Activity [17]: 53% | IC50 [3]: 0.1 nM
